Test results published in ChEMBL document CHEMBL4145659, “Discovery of a Series of Indole-2 Carboxamides as Selective Secreted Phospholipase A2 Type X (sPLA2-X) Inhibitors” (ACS Med Chem Lett, 2018).
pIC50: −log10 of the molar value. Active and inactive are the calls of the source. The rule behind the calls is not given here.

Columns and labels:
[1] = target: T1, Group 10 secretory phospholipase A2 (Homo sapiens) (UniProt O15496); test: (§1) Inhibition of recombinant human sPLA2-10 expressed in Escherichia coli BL21(DE3) using 1-palmitoyl-2-oleoyl-sn-glycero-3-phosphocholine as substrate pretreated for 20 mins followed by substrate addition and measured after 60 mins
T1 sequence (whole entry): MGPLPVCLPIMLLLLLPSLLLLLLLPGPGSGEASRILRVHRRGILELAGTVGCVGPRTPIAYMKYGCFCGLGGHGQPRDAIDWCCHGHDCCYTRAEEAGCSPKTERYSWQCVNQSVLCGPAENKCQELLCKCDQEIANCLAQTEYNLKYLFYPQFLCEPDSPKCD

[2] = target: T2, Group 10 secretory phospholipase A2 (Homo sapiens, UniProt O15496); test: as §1
T2 sequence (O15496 whole entry): T1 sequence (whole entry)

[3] = target: T2, Group 10 secretory phospholipase A2; test: Inhibition of recombinant human sPLA2-10 expressed in Escherichia coli BL21(DE3) using HDL as substrate pretreated for 20 mins followed by substrate addition and measured after 60 mins
[4] = target: T3, Phospholipase A2, membrane associated (Homo sapiens, UniProt P14555); test: Inhibition of recombinant human sPLA2-2A expressed in Escherichia coli BL21(DE3) using 1-palmitoyl-2-oleoyl-sn-glycero-3-phosphocholine as substrate pretreated for 20 mins followed by substrate addition and measured after 60 mins
T3 sequence (P14555 whole entry): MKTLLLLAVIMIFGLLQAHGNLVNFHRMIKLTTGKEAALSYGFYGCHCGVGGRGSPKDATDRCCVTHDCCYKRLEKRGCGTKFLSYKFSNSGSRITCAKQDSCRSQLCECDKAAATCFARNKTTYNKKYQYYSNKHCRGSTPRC

[5] = target: T4, Phospholipase A2 group V (Homo sapiens) (UniProt P39877); test: Inhibition of recombinant human sPLA2-5 expressed in Escherichia coli BL21(DE3) at 30 uM using 1-palmitoyl-2-oleoyl-sn-glycero-3-phosphocholine as substrate pretreated for 20 mins followed by substrate addition and measured after 60 mins
T4 sequence (whole entry): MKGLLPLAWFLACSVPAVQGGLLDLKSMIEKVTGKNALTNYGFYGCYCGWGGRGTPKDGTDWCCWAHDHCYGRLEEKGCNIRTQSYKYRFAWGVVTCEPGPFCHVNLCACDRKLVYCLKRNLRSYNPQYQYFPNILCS

Phospholipase A2 group V = target: T5, Phospholipase A2 group V (Homo sapiens, UniProt P39877); test: Inhibition of recombinant human sPLA2-5 expressed in Escherichia coli BL21(DE3) using 1-palmitoyl-2-oleoyl-sn-glycero-3-phosphocholine as substrate pretreated for 20 mins followed by substrate addition and measured after 60 mins
T5 sequence (P39877 whole entry): T4 sequence (whole entry)

[6] = target: T6, Phospholipase A2, membrane associated (Homo sapiens) (UniProt P14555); test: Inhibition of recombinant human sPLA2-2A expressed in Escherichia coli BL21(DE3) at 30 uM using 1-palmitoyl-2-oleoyl-sn-glycero-3-phosphocholine as substrate pretreated for 20 mins followed by substrate addition and measured after 60 mins
T6 sequence (whole entry): T3 sequence (P14555 whole entry)

[7] = target: T7, Group 10 secretory phospholipase A2 (Mus musculus, UniProt Q9QXX3); test: Inhibition of mouse sPLA2-10 using 1-palmitoyl-2-oleoyl-sn-glycero-3-phosphocholine as substrate pretreated for 20 mins followed by substrate addition and measured after 60 mins
T7 sequence (Q9QXX3 whole entry): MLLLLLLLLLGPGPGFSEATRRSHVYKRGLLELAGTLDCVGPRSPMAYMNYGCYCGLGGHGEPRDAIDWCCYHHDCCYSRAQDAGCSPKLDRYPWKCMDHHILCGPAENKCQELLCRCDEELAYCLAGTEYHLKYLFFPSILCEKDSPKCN

[8] = Intrinsic clearance in human hepatocytes assessed per million cells at 1 uM measured after 2 to 60 mins; format: ADME, cell-based, Hepatocyte; settings: read-out: CLH
[9] = AUC in Beagle dog at 1 µmol/kg, iv by LC/MS analysis; settings: in vivo
[10] = Clearance in Beagle dog at 1 µmol/kg, iv by LC/MS analysis; settings: in vivo
[11] = AUC in Sprague-Dawley rat at 1 µmol/kg, iv by LC/MS analysis; settings: in vivo
[12] = Clearance in Sprague-Dawley rat at 1 µmol/kg, iv by LC/MS analysis; settings: in vivo
[13] = AUC in Sprague-Dawley rat at 4 µmol/kg, po administered via gavage by LC/MS analysis; settings: in vivo
[14] = Volume of distribution at steady state in Beagle dog at 1 µmol/kg, iv by LC/MS analysis; settings: in vivo, read-out: Vdss
[15] = Volume of distribution at steady state in Sprague-Dawley rat at 1 µmol/kg, iv by LC/MS analysis; settings: in vivo, read-out: Vdss
[16] = Oral bioavailability in Sprague-Dawley rat at 4 µmol/kg administered via gavage by LC/MS analysis; settings: in vivo

NC(=O)c1nc2ccccn2c1-c1cccc(CCC(=O)O)c1
inhibition [1]: inactive

NC(=O)c1cc2ccc(OCC(F)(F)F)cc2n1-c1cccc(CCC(=O)O)c1
pIC50 [2]: 7.03 | pIC50 [3]: 6.13 | pIC50 [4]: < 5.00 | inhibition [5]: inactive

NC(=O)c1cc2ccccc2n1-c1cccc(OCC(=O)O)c1
pIC50 [2]: 4.57

NC(=O)c1cc2ccc(OC(F)F)cc2n1-c1cccc(CCC(=O)O)c1
pIC50 [2]: 7.17 | pIC50 [3]: 6.43 | pIC50 [4]: 5.44 | inhibition [5]: inactive

NC(=O)c1cc2sccc2n1-c1cccc(CCC(=O)O)c1
inhibition [1]: inactive

NC(=O)c1cc2ccc(C(F)(F)F)cc2n1-c1cccc(CCC(=O)O)c1
pIC50 [2]: 7.37 | pIC50 [3]: 6.32 | pIC50 [4]: 6.05 | pIC50 (Phospholipase A2 group V): 5.43

NC(=O)c1cc2ccccc2n1-c1cccc(CC(=O)O)c1
pIC50 [2]: 4.99

NC(=O)c1cc2ccsc2n1-c1cccc(CCC(=O)O)c1
inhibition [1]: inactive

NC(=O)c1cc2ccccc2n1-c1cccc(/C=C/C(=O)O)c1
pIC50 [2]: 4.63

NC(=O)c1cc2ccc(Cl)cc2n1-c1cccc(CCC(=O)O)c1
pIC50 [2]: 7.05 | pIC50 [3]: 5.96 | pIC50 [4]: 5.24 | inhibition [5]: inactive

NC(=O)c1cc2ccccc2n1-c1ccccc1
pIC50 [2]: < 4.52

NC(=O)c1cccn1-c1cccc(CCC(=O)O)c1
inhibition [1]: inactive

Cc1ccc2cc(C(N)=O)n(-c3cccc(CCC(=O)O)c3)c2c1
pIC50 [2]: 6.64 | inhibition [6]: inactive | inhibition [5]: inactive

NC(=O)c1cc2ccccc2n1-c1cccc(C(=O)NCC(=O)O)c1
pIC50 [2]: 5.14

NC(=O)c1cc2ccc(CO)cc2n1-c1cccc(CCC(=O)O)c1
pIC50 [2]: 5.55 | inhibition [6]: inactive | inhibition [5]: inactive

NC(=O)c1cc2ccccc2n1Cc1cccc(C(=O)O)c1
pIC50 [2]: 4.68

NC(=O)CCc1cccc(-n2c(C(N)=O)cc3ccccc32)c1
pIC50 [2]: < 4.52

Cc1cccc2cc(C(N)=O)n(-c3cccc(CCC(=O)O)c3)c12
pIC50 [2]: 5.72 | inhibition [6]: inactive | inhibition [5]: inactive

Cc1ccc2c(c1)cc(C(N)=O)n2-c1cccc(CCC(=O)O)c1
pIC50 [2]: 5.57

NC(=O)c1cc2ccc(C3CC3)cc2n1-c1cccc(CCC(=O)O)c1
pIC50 [2]: 6.80 | pIC50 [3]: 5.72 | pIC50 [4]: 5.64 | pIC50 (Phospholipase A2 group V): < 5.00

NC(=O)c1cc2cccnc2n1-c1cccc(CCC(=O)O)c1
inhibition [1]: inactive

NC(=O)c1cc2ccc(F)cc2n1-c1cccc(CCC(=O)O)c1
pIC50 [2]: 6.59 | inhibition [6]: inactive | inhibition [5]: inactive

NC(=O)c1cc2ccccc2n1-c1cccc(C(=O)O)c1
pIC50 [2]: 4.54

NC(=O)c1cc2ccc(OC(F)(F)F)cc2n1-c1cccc(CCC(=O)O)c1
pIC50 [2]: 7.59 | pIC50 [3]: 6.57 | pIC50 [4]: 6.51 | pIC50 (Phospholipase A2 group V): 5.65 | pIC50 [7]: 7.02 | hepatocyte CLint at 1 µM [8]: 1.7 µL/min/1e6 cells | AUC [9]: 8.78 µM·h | clearance [10]: 0.75 mL/min/kg | AUC [11]: 1.84 µM·h | clearance [12]: 9.1 mL/min/kg | AUC [13]: 11 µM·h | Vd [14]: 0.44 L/kg | Vd [15]: 2.54 L/kg | bioavailability [16]: 100%

CCc1c(C(=O)C(N)=O)c2c(OCC(=O)O)cccc2n1Cc1ccccc1 [VARESPLADIB]
pIC50 (Phospholipase A2 group V): 6.91

NC(=O)c1cc2ccccc2n1-c1cccc(CCC(=O)O)c1
pIC50 [2]: 6.00 | inhibition [6]: inactive | inhibition [5]: inactive

Cc1cccc2c1cc(C(N)=O)n2-c1cccc(CCC(=O)O)c1
pIC50 [2]: 6.08

CS(=O)(=O)NC(=O)CCc1cccc(-n2c(C(N)=O)cc3ccccc32)c1
pIC50 [2]: 5.32

NC(=O)c1cc2ccccc2n1-c1cccc(C(F)(F)F)c1
pIC50 [2]: 5.16

CCc1ccc2cc(C(N)=O)n(-c3cccc(CCC(=O)O)c3)c2c1
pIC50 [2]: 6.77 | pIC50 [4]: 5.36 | inhibition [5]: inactive

COc1ccc2cc(C(N)=O)n(-c3cccc(CCC(=O)O)c3)c2c1
pIC50 [2]: 6.21 | inhibition [6]: inactive | inhibition [5]: inactive

N#Cc1ccc2cc(C(N)=O)n(-c3cccc(CCC(=O)O)c3)c2c1
pIC50 [2]: 6.96 | pIC50 [3]: 6.00 | pIC50 [4]: 5.41 | inhibition [5]: inactive
